Biological target: T1, cholecystokinin-2 receptor (CCK-2R) (Rattus norvegicus, UniProt P30553)
T1 construct: host or cells: AR42J (rat pancreatic cancer cells)
T1 sequence (P30553 1-452): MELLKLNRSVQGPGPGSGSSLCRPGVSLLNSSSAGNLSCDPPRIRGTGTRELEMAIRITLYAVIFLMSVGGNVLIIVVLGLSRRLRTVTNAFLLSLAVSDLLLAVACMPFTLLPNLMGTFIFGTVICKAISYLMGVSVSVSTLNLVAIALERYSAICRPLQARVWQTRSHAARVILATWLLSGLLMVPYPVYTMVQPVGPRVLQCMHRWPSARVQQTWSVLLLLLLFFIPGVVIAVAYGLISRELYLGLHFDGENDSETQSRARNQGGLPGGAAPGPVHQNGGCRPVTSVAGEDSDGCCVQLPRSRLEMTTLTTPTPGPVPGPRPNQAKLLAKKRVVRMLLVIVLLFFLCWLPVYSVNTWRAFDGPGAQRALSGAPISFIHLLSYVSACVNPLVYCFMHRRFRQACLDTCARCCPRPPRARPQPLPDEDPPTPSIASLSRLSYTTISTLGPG
Assay: CCK-2R affinity (apparent IC50), competitive binding on AR42J cells
Conditions: natLu-labeled peptide, 3 h, 37 °C, [177Lu]Lu-DOTA-PP-F11N (0.3 pmol) as radiolabeled reference
Method: On the next day, medium was removed, cells were washed with PBS (300 µL) and fresh nutrient medium supplemented with 5% BSA (200 µL) was added. The peptide of interest (25 µL in nutrient medium) in increasing concentrations (10^−10 to 10^−4 M) in triplicate as well as [^177Lu]Lu-DOTA-PP-F11N (25 μL, 0.3 pmol) were added to the cells and the assay was incubated for 3 h at 37 °C. Subsequently, the supernatant was collected, cells were washed with PBS (300 µL) and both fractions were unified. Cell lysis was conducted by addition of NaOH (300 µL, 1 N) and incubation for at least 20 min at room temperature. The supernatant was collected, the respective wells were washed with NaOH (300 µL, 1 N) and both fractions were unified. Radioactivity of all fractions collected was quantified using a γ-counter (PerkinElmer Inc., Waltham, United States). Apparent half-maximal inhibitory concentration (IC50) was calculated via the GraphPad PRISM software (GraphPad Software Inc., La Jolla, United States).
CCK-2R positive rat pancreatic cancer cells AR42J (CLS GmbH, Eppelheim, Germany) were cultivated in monolayers in CELLSTAR® cell culture flask (Greiner Bio-One GmbH, Frickenhausen, Germany) at 37°C in a humidified atmosphere (5% CO2). Therefor, a HERAcell 150i-Incubator (Thermo Fisher Scientific Inc., Waltham, United States) was used. RPMI 1640 medium, supplemented with 5 mM L-Gln 5 mL non-essential amino acids (100×) and 10% FCS, was used for cell nutrition. Detachment of the cells for passaging was conducted with a Dulbecco’s PBS solution supplemented with 0.1% EDTA (v/v). Cell numbers were determined with a Neubauer hemocytometer (Paul Marienfeld, Lauda-Königshofen, Germany). All operations requiring sterile conditions, were accomplished using a MSC-Advantage safety workbench (Thermo Fisher Scientific Inc., Waltham, United States).
Table S1. Affinity, lipophilicity and human serum albumin binding data of the compounds evaluated. Affinity data were determined on AR42J cells (2.0 × 10^5 cells/well) and [^177Lu]Lu-DOTA-PP-F11N (0.3 pmol/well) as radiolabeled reference (3 h, 37 °C, RPMI 1640, 5 mM L-Gln, 5 mL non-essential amino acids (100×), 10% FCS + 5% BSA (v/v)).

CCCC[C@@H](C(=O)N[C@@H](CC(=O)O)C(=O)N[C@@H](Cc1cccc2ccccc12)C(N)=O)N(C)C(=O)[C@H](Cc1c[nH]c2ccccc12)NC(=O)CCOCCOCCOCCOCCNC(=O)CC[C@@H](NC(=O)CCOCCOCCOCCOCCOCCNC(=O)CC[C@@H](NC(=O)[C@@H](CNC(=O)C[N+](C)(C)Cc1ccc([Si](F)(C(C)(C)C)C(C)(C)C)cc1)NC(=O)CN1CCN(CC(=O)O)CCN(CC(=O)O)CCN(CC(=O)O)CC1)C(=O)O)C(=O)O [[^nat/177Lu]Lu-DOTA-rhCCK-91, DOTA-D-Dap(SiFAlin)-D-γ-Glu-(PEG)4-D-γ-Glu-(PEG)3-Trp-(N-Me)Nle-Asp-1-Nal-NH2, metal not drawn] gave an IC50 (n = 3, listed as [^177/natLu]Lu-DOTA-rhCCK-91) of 8.6 ± 0.7 nM and an IC50 (n = 3, listed as [^natLu]Lu-DOTA-rhCCK-91) of 8.56 ± 0.66 nM.

Reference: paper PMC10907560, “Significant reduction of activity retention in the kidneys via optimized linker sequences in radiohybrid-based minigastrin analogs” (EJNMMI Research, 2024)
